Experimental findings from patent US9321737B2, “CDK8-CDK19 selective inhibitors and their use in anti-metastatic and chemopreventative methods for cancer” (SENEX BIOTECHNOLOGY INC, priority 2012, dated 2016) are described below.

In one data set the test system is MDA-MB-231. Put plainly: MDA-MB-231 orthotopic TNBC xenograft. It counts as in vivo, female SCID mice. Particulars: 1 mg/kg doxorubicin single dose, three rounds. The method, then: Once tumors were formed, mice were randomized into 4 cohorts (n=10) and treated, at 7-10 day intervals, with three rounds of: vehicle (5 daily doses), 1 mg/kg doxorubicin (single dose), 40 mg/kg Senexin B (5 daily doses) or doxorubicin (single dose)+Senexin B (5 daily doses).

The test system of data set [1] is MDA-MB-468 TNBC tumor invasion. The data set can be described thus: Histological analysis of MDA-MB-468 tumor invasion (H&E). It counts as in vivo, female nude mice. Particulars: tumors from FIG. 15B experiment. An excerpt:
At the end of the experiment shown in FIG. 15B, mice were sacrificed, tumors were removed, formalin fixed, sectioned and processed for histological analysis after H&E staining.

Another data set relates to MDA-MB-468. Put plainly: MDA-MB-468 TNBC xenograft model. It counts as in vivo, female nude mice. Particulars: 40 mg/kg Senexin B daily i.p.; 4 mg/kg doxorubicin two injections two weeks apart. The method, then:
Female nude mice were inoculated with MDA-MB-468 cells, and once palpable tumors were formed, mice were randomized into 4 groups, treated daily i.p. with vehicle alone (n=12), 40 mg/kg Senexin B, two injections with 4 mg/kg doxorubicin two weeks apart, or doxorubicin combined with Senexin B (n=8 in each of the latter groups).

Data set [2] concerns CDKI pathway (CMV promoter stimulation by p21) in HT1080 fibrosarcoma cells. The data set can be described thus: CDKI pathway inhibition cellular assay (CMV-GFP induction by IPTG-inducible p21). It counts as cell-based, human. The note with it: IPTG-induced p21, CMV-GFP / Hoechst 33342, read-out: Cell-based Assay EC50. As for the experimental part:
The compounds described below are shown in Table 1 and the structures of some novel compounds according to the invention are shown in FIG. 1. […] All the compounds were tested for the ability to inhibit the CDKI pathway in a cellular assay described in our previous patent application PCT/US06/01046. This assay is based on the induction of green fluorescent protein (GFP) expression from the cytomegalovirus (CMV) promoter in human HT1080 fibrosarcoma cells that express CDKI p21 from an isopropyl-β-thio-galactoside (IPTG)-inducible promoter. The compound activity as a CDKI pathway inhibitor is measured by its ability to prevent the stimulation of the CMV promoter upon the addition of p21-inducing IPTG. CMV promoter activity is measured by the ratio of GFP fluorescence to the relative cell number, as determined by staining cellular DNA with Hoechst 33342.

A short description of data set [3]: Solubility in 20% propylene glycol. It counts as physicochemical. The note with it: 1 mM, 40° C., 30 min, centrifuged, OD reading. The method, then:
(§1) The compounds were also tested for solubility in 20% propylene glycol and in water, as follows. Compounds (dry powder) were dissolved in 20% propylene glycol at a concentration of 1 mM at a temperature of 40° C. with occasional vortexing. After 30 min, the solution was centrifuged at 10,000×g for 5 min. Serial dilutions of the cleared supernatant were prepared and used to measure the compound concentrations through OD reading, relative to 1 μM standard solution of the same compound. The results of the measurement were expressed as % solubility of the compound at 1 mM in 20% propylene glycol. To determine water solubility, the compounds (dry powder) were initially dissolved in water at a concentration of 100 mM at a temperature of 40° C. with occasional vortexing. After 30 min, the solution was centrifuged at 10,000×g for 5 min, and the formation of an insoluble pellet was monitored. At subsequent steps, the compound was attempted to be dissolved at lower concentrations, until no pellet was observed after centrifugation, indicating complete solution of the compound.

The nature of another data set: Water solubility. It counts as physicochemical. Particulars: 40° C., 30 min, no pellet after centrifugation. The method, then:
as §1

On to `COc1cccc2c1C(=O)c1c(O)c3c(c(O)c1C2=O)C[C@@](O)(C(=O)CO)C[C@@H]3O[C@H]1C[C@H](N)[C@H](O)[C@H](C)O1` [doxorubicin, reference compound], for which the “lower body weight than control mice” value in the data set with MDA-MB-231 is on record as “about 15%”. Moreover, the “invasive or non-invasive tumor growth” value in data set [1] is given as “displayed invasive growth”. For the same molecule, the “tumor growth (tumor volumes after 30 days of treatment)” value with MDA-MB-468 is recorded as “significantly slowed down the tumor growth”.
As to `CN(C)CCNC(=O)c1ccc(CCNc2ncnc3ccc(C#N)cc23)cc1` [SNX2-1-155], the EC50 – broadly, the concentration giving half of the maximal effect – in data set [2] was found to be 4.57 µM. Further, the “% solubility at 1 mM in 20% propylene glycol” value (“% solubility at 1 mM” below) in data set [3] worked out at 100%. In addition, the “Water Solubility” value in “Water solubility” is reported as “Soluble at 10 mM”.
Take `CN1CCN(C(=O)c2ccc(CCNc3ncnc4ccc(C#N)cc34)cc2)CC1` [SNX2-1-153]: the concentration giving a half-maximal response (EC50) in data set [2] turned out to be 5.21 µM. For the same molecule, the “% solubility at 1 mM” value in data set [3] was 100%. For the same molecule, in the data set “Water solubility”, the “Water Solubility” value was “Soluble at 10 mM”.
For the molecule `COCCNC(=O)c1ccc(CCNc2ncnc3ccc(C#N)cc23)cc1` [SNX2-1-150], the EC50 in data set [2] amounted to 2.2 µM. In data set [3], the “% solubility at 1 mM” value turned out to be 100%. Further, in “Water solubility”, the “Water Solubility” value is recorded as “Soluble at 10 mM”.
`N#Cc1ccc2ncnc(NCCc3ccc(C(=O)N4CCCCC4)cc3)c2c1` [SNX2-1-152]: the concentration giving a half-maximal response (EC50) in data set [2] turned out to be 3.83 µM. Besides, the “% solubility at 1 mM” value in data set [3] is reported as 100%.
